# Columns and labels:
# [1] = Half life in human liver microsomes; assay type: ADME, Microsome
# [2] = tested on: Human immunodeficiency virus 1; assay: Antiviral activity against T-tropic HIV1 NL4-3 virus by cell culture based assay; assay type: functional, organism-based; conditions: Human immunodeficiency virus 1, NL4-3
# [3] = tested on: Human immunodeficiency virus 1; assay: Antiviral activity against M-tropic HIV1 Bal virus by cell culture based assay; assay type: functional, organism-based; conditions: Human immunodeficiency virus 1, Bal
# [4] = Antiviral activity against T-tropic HIV1 BRU virus by cell culture based assay; assay type: functional, Human immunodeficiency virus type 1 (BRU ISOLATE); conditions: Human immunodeficiency virus 1
# [5] = Cytotoxicity against human HeLa CD4+ CCR5+ cells after 6 days by XTT assay; assay type: cell-based
# [6] = tested on: Human immunodeficiency virus 1; assay: Antiviral activity against HIV1 JRFL pseudotyped virus infected in HeLa CD4+ CCR5+ cells by single-cycle viral infectivity assay; assay type: functional, organism-based; conditions: Human immunodeficiency virus 1, JRFL
# [7] = Permeability across human Caco2 cells at pH 6.5; assay type: ADME, cell-based; conditions: Caco-2, pH 6.5, read-out: permeability
# [8] = Half life in rat at 1 mg/kg, iv; assay type: ADME, organism-based; design: dose 1 mg/kg, route intravenous; conditions: in vivo
# [9] = Clearance in rat at 1 mg/kg, iv; assay type: ADME, organism-based; design: dose 1 mg/kg, route intravenous; conditions: in vivo
# [10] = Cmax in rat at 5 mg/kg, po; assay type: ADME, organism-based; design: dose 5 mg/kg, route oral; conditions: in vivo
# [11] = Oral bioavailability in rat at 5 mg/kg; assay type: ADME, organism-based; conditions: in vivo
# [12] = Safety index, ratio fo CC50 for human HeLa CD4+ CCR5+ cells to EC50 for HIV1 JRFL; assay type: toxicity; conditions: read-out: Ratio CC50/EC50
half-life [1] [min],EC50 [6] [nM],Papp [7] [×10⁻⁶ cm/s],SMILES,CC50 at 144 h [5] [nM],also measured
> 100,1.24,–,O=C(C(=O)N1CCN(C(=O)c2ccccc2)CC1)c1c[nH]c2cccc(F)c12,> 300000,EC50 [2]: 1500 nM; EC50 [3]: 700 nM; EC50 [4]: 90 nM
> 100,0.07,< 1.5,C[C@@H]1CN(C(=O)c2ccccc2)CCN1C(=O)C(=O)c1c[nH]c2c(-c3nn[nH]n3)ccc(F)c12,> 300000,–
–,0.04,–,C[C@@H]1CN(C(=O)c2ccccc2)CCN1C(=O)C(=O)c1c[nH]c2c(-c3ncon3)ccc(F)c12,125000,–
16,0.16,14.8,COc1ccc(-c2ncon2)c2[nH]cc(C(=O)C(=O)N3CCN(C(=O)c4ccccc4)CC3)c12,22000,–
25,0.16,8.9,Cc1nnc(-c2ccc(F)c3c(C(=O)C(=O)N4CCN(C(=O)c5ccccc5)CC4)c[nH]c23)[nH]1,159000,–
–,0.1,–,NC(=O)c1nc(-c2ccc(F)c3c(C(=O)C(=O)N4CCN(C(=O)c5ccccc5)CC4)c[nH]c23)no1,154000,–
–,0.1,–,CC(=O)Nc1nc(-c2ccc(F)c3c(C(=O)C(=O)N4CCN(C(=O)c5ccccc5)CC4)c[nH]c23)no1,229000,–
–,0.3,–,CN(C)c1nc(-c2ccc(F)c3c(C(=O)C(=O)N4CCN(C(=O)c5ccccc5)CC4)c[nH]c23)no1,23000,–
–,0.04,–,CNc1nc(-c2ccc(F)c3c(C(=O)C(=O)N4CCN(C(=O)c5ccccc5)CC4)c[nH]c23)no1,26000,–
17,0.0082,6.9,Nc1nc(-c2ccc(F)c3c(C(=O)C(=O)N4CCN(C(=O)c5ccccc5)CC4)c[nH]c23)no1,43000,–
–,3.55,–,COc1nc(-c2ccc(F)c3c(C(=O)C(=O)N4CCN(C(=O)c5ccccc5)CC4)c[nH]c23)no1,44000,–
–,0.094,–,Cc1noc(-c2ccc(F)c3c(C(=O)C(=O)N4CCN(C(=O)c5ccccc5)CC4)c[nH]c23)n1,> 300000,–
–,0.06,–,Cc1nc(-c2ccc(F)c3c(C(=O)C(=O)N4CCN(C(=O)c5ccccc5)CC4)c[nH]c23)no1,226000,–
–,0.53,–,O=C(C(=O)N1CCN(C(=O)c2ccccc2)CC1)c1c[nH]c2c(-c3nc4ccccc4[nH]3)ccc(F)c12,11000,–
–,0.88,–,O=C(C(=O)N1CCN(C(=O)c2ccccc2)CC1)c1c[nH]c2c(-c3nc4ccccc4o3)ccc(F)c12,27000,–
> 200,0.08,1.7,O=C(C(=O)N1CCN(C(=O)c2ccccc2)CC1)c1c[nH]c2c(-c3nn[nH]n3)ccc(F)c12,245000,half-life [8]: 67 min; clearance [9]: 3.1 mL/min/kg; Cmax [10]: 95 ng/mL; bioavailability [11]: 2.3%; EC50 [2]: 9.41 nM; EC50 [3]: 0.37 nM; EC50 [4]: 6.38 nM
32,0.03,1.9,O=C(C(=O)N1CCN(C(=O)c2ccccc2)CC1)c1c[nH]c2c(-c3nnc[nH]3)ccc(F)c12,199000,half-life [8]: 187 min; clearance [9]: 3.7 mL/min/kg; Cmax [10]: 369 ng/mL; bioavailability [11]: 14%
10,0.05,–,O=C(C(=O)N1CCN(C(=O)c2ccccc2)CC1)c1c[nH]c2c(-c3nnco3)ccc(F)c12,> 300000,–
17,0.05,> 30,O=C(C(=O)N1CCN(C(=O)c2ccccc2)CC1)c1c[nH]c2c(-c3ncon3)ccc(F)c12,74000,half-life [8]: 120 min; clearance [9]: 3.9 mL/min/kg; Cmax [10]: 2610 ng/mL; bioavailability [11]: 89%; EC50 [2]: 8.66 nM; EC50 [3]: 7.61 nM; EC50 [4]: 3.38 nM; selectivity ratio [12]: 1500
16,0.06,3.7,O=C(C(=O)N1CCN(C(=O)c2ccccc2)CC1)c1c[nH]c2c(-c3cnc[nH]3)ccc(F)c12,> 300000,–
2.9,0.0054,12.2,O=C(C(=O)N1CCN(C(=O)c2ccccc2)CC1)c1c[nH]c2c(-c3cnco3)ccc(F)c12,> 300000,half-life [8]: 65 min; clearance [9]: 17 mL/min/kg; Cmax [10]: 444 ng/mL; bioavailability [11]: 47%
–,0.05,–,O=C(C(=O)N1CCN(C(=O)c2ccccc2)CC1)c1c[nH]c2c(-c3ncco3)ccc(F)c12,192000,–
–,0.0067,–,O=C(C(=O)N1CCN(C(=O)c2ccccc2)CC1)c1c[nH]c2c(-c3nccs3)ccc(F)c12,23000,–
–,0.01,–,O=C(C(=O)N1CCN(C(=O)c2ccccc2)CC1)c1c[nH]c2c(-c3ccsc3)ccc(F)c12,27000,–
–,0.06,–,O=C(C(=O)N1CCN(C(=O)c2ccccc2)CC1)c1c[nH]c2c(-c3cccs3)ccc(F)c12,5300,–
–,0.06,–,O=C(C(=O)N1CCN(C(=O)c2ccccc2)CC1)c1c[nH]c2c(-c3cccnc3)ccc(F)c12,10000,–
–,0.12,–,O=C(C(=O)N1CCN(C(=O)c2ccccc2)CC1)c1c[nH]c2c(-c3ccccn3)ccc(F)c12,17000,–
–,0.04,–,COc1ccc(-c2ccc(F)c3c(C(=O)C(=O)N4CCN(C(=O)c5ccccc5)CC4)c[nH]c23)cc1,21000,–
–,0.43,–,O=C(C(=O)N1CCN(C(=O)c2ccccc2)CC1)c1c[nH]c2c(-c3ccccc3)ccc(F)c12,6800,–
–,153,–,O=C(C(=O)N1CCN(C(=O)c2ccccc2)CC1)c1c[nH]c2ccccc12,275000,–
